Measurements published in paper PMC6832524, “A Nature-Inspired Design Yields a New Class of Steroids Against Trypanosomatids” (Molecules, 2019).
Read-outs that look alike come from different tables or passages of the source.

Assays:
[1] = system: L. infantum .uy (parasites isolated from two dogs in the first Leishmaniasis outbreak in Uruguay); test: in vitro activity against L. infantum isolated from dogs in Uruguay; format: cell-based, Leishmania infantum; details: for IC50: Leishmania infantum, read-out: IC50 ± %SD (µM) L. infantum .uy
Procedure: Compounds were dissolved in dimethylsulfoxide (DMSO).
For assessing the amastigote form of all Leishmania strains were cultured in the RPMI described above. Parasites were seeded at 1 × 10^6 cells/mL and at each time point counted at least five times to obtain a growth curve. […] Control conditions of parasites without drug (100% growth) and medium without parasites were included. After 72 h at 28 °C parasite viability was determined by the resazurin method described. Infection with L. infantum. THP-1 monocytes (ATCC®TIB-202™) were grown following ATCC recommendations and seeded at 30,000 cells/well onto 18-mm round glass coverslips in 12 wells. For stimulation cells were incubated with 100 nM of PMA for 48 h, PMA was washed and cells left with growth media for 24 h more after incubation with parasites. 30,000 parasites/well were added and left to interact. After 48 h, coverslips were washed with PBS, fixed with 95% (v/v) ethanol, and stained with Fluoroshield™ with DAPI (Sigma). Infectivity was assessed considering invasion and replication capacity counting infected cells and parasites per infected cell, respectively. Infectivity index calculation = (% of infected cells X (amastigotes per cell))/number of total counted cells. Image acquisition was made with a Leica TCS-SP5 laser scanning confocal microscope (Leica Microsystems GmbH, Wetzlar, Germany) using the LASAF v.2 software (Leica Microsystems, Wetzlar, Germany) and observed using a 356 nm laser excitation line and an emission bandwidth from 461 nm under a 20× water immersion objective. Further image analysis, including quantitation and processing of figures were made using Fiji (http://fiji.sc/).

[2] = system: L. infantum (MHOM/BR/2002/LPC-RPV) promastigotes; test: in vitro anti-Leishmania activity, promastigotes, resazurin; format: cell-based, Leishmania infantum
[3] = system: J774.1 murine macrophages; test: nonspecific cytotoxicity on mammalian cells, MTT; format: cell-based; details: for IC50: Mus musculus, J774.1, 48 h, MTT, read-out: IC50 ± SD (µM) Murine Macrophages; for SI J774.1/T. cruzi: ratio IC50 murine macrophages / IC50 T. cruzi epimastigotes
[4] = system: T. cruzi epimastigotes, Tulahuen 2 strain (genotype TcVI); test: in vitro anti-T. cruzi activity, epimastigote growth (absorbance 600 nm); format: cell-based, Trypanosoma cruzi
Procedure: Control parasites were cultivated in 0.4% DMSO. Each concentration of the compound was evaluated in duplicate.

[5] = system: promastigotes L. braziliensis/ L. amazonensis; test: in vitro anti-Leishmania activity, promastigotes (Table 1S); format: cell-based; details: read-out: IC50 ± %SD (µM) promastigotes L. braziliensis/ L. amazonensis
[6] = system: L. amazonensis (promastigotes); test: in vitro anti-Leishmania activity, promastigotes, resazurin; format: cell-based; details: maximum dose tested 25 µM, read-out: IC50 ± %SD (µM) L. amazonensis
[7] = parasites isolated from two dogs in Uruguay, maximum dose tested 25 µM
[8] = Leishmania infantum, promastigotes, maximum dose tested 25 µM, read-out: IC50 ± %SD (µM) L. infantum
[9] = Trypanosoma cruzi, TULAHUEN, epimastigotes, maximum dose tested 25 µM, read-out: IC50 ± %SD (µM) T. cruzi

SMILES | IC50 [2, 8] [µM] | IC50 [4, 9] [µM] | IC50 [1] [µM] | IC50 [5] [µM] | melting point [°C] | IC50 [6] [µM] | other results
CCCCCCCCCCCCCCCCOP(=O)([O-])OCC[N+](C)(C)C [Miltefosine, reference compound] | 0.9 ± 0.2 | 8 ± 2 | – | – | – | – | IC50 [1, 7]: 5 ± 2 µM; IC50 [3]: 50 ± 7 µM; SI J774.1/L. infantum ([3]; ratio IC50 murine macrophages / IC50 L. infantum promastigotes): 56; SI J774.1/T. cruzi [3]: 6
C/C(=N\Nc1nc(C(=O)N2CCN(C/C=C\c3ccccc3)CC2)cs1)[C@@H]1CC[C@H]2[C@@H]3CC=C4CC(O)CC[C@]4(C)[C@H]3CC[C@]12C (stereo partly drawn) [Compound 13, (2-((E)-2-(1-((8S,9S,10R,13S,14S,17R)-3-hydroxy-10,13-dimethyl-2,3,4,7,8,9,10,11,12,13,14,15,16,17-tetradecahydro-1H-cyclopenta[a]phenanthren-17-yl)ethylidene)hydrazinyl)thiazol-4-yl)(4-((Z)-3-phenylallyl)piperazin-1-yl)methanone] | > 25 | > 25 | > 25 | > 25 | – | – | –
C=CCn1c(C(=O)NCC(=O)OCC)cs/c1=N/N=C(/C)[C@@H]1CC[C@H]2[C@@H]3CC=C4CC(O)CC[C@]4(C)[C@H]3CC[C@]12C (stereo partly drawn) [Compound 14, Ethyl-2-((Z)-3-allyl-2-((E)-(1-((8S,9S,10R,13S,14S,17R)-3-hydroxy-10,13-dimethyl-2,3,4,7,8,9,10,11,12,13,14,15,16,17-tetradecahydro-1H-cyclopenta[a]phenanthren-17-yl)ethylidene)hydrazono)-2,3-dihydrothiazole-4-carboxamido)acetate] | > 25 | 8 ± 2 | > 25 | > 25 | – | – | active against the strains isolated from Uruguayan dogs, in words [1]: not; activity against Leishmania infantum from Fiocruz collection, in words [2]: active; IC50 [3]: 100 ± 8 µM; SI J774.1/T. cruzi [3]: 13
CC1CS(=O)(=O)CCN1/N=C/c1ccc([N+](=O)[O-])o1 (centres unmarked) [Nifurtimox, reference compound] | 6 ± 2 | 7 ± 2 | – | – | – | – | IC50 [1, 7]: 10 ± 2 µM
C=CCn1c(-c2ccc(Br)cc2)csc1=NN=C(C)C1CCC2C3CC=C4CC(O)CCC4(C)C3CCC12C (stereo not drawn) [Compound 11, 1-(3β-Hydroxy-pregn-5-ene-20E-ylidene)-2-(3-allyl-4-(4-bromo-pheny)thiazol-2(3H)-ylidene)azine] | > 25 | > 25 | > 25 | 16 ± 3 | 179 to 183 | 16 ± 3 | –
C[C@]12CC[C@H]3[C@@H](CC=C4CC(O)CC[C@@]43C)[C@@H]1CC[C@@H]2C(=O)/C=C/c1cccc(Br)c1 (some centres unmarked) [Compound 4] | > 25 | 20 ± 5 | > 25 | > 25 | 159 to 161 | > 25 | active against the strains isolated from Uruguayan dogs, in words [1]: not; activity against Leishmania infantum from Fiocruz collection, in words [2]: active
C=CCn1c(C(=O)N2CCN(CC=Cc3ccccc3)CC2)cs/c1=N/N=C(/C)[C@@H]1CC[C@H]2[C@@H]3CC=C4CC(O)CC[C@]4(C)[C@H]3CC[C@]12C (stereo partly drawn) [Compound 12, ((Z)-3-allyl-2-((E)-(1-((8S,9S,10R,13S,14S,17R)-3-hydroxy-10,13-dimethyl-2,3,4,7,8,9,10,11,12,13,14,15,16,17-tetradecahydro-1H-cyclopenta[a]phenanthren-17-yl)ethylidene)hydrazono)-2,3-dihydrothiazol-4-yl)(4-cinnamylpiperazin-1-yl)methanone] | > 25 | > 25 | > 25 | > 25 | – | – | –
C[C@]12CC[C@H]3[C@@H](CC=C4CC(O)CC[C@@]43C)[C@@H]1CC[C@@H]2C(=O)/C=C/C=C/c1ccccc1 (stereo partly drawn) [Compound 6, (2E,4E)-1-((8S,9S,10R,13S,14S,17S)-3-hydroxy-10,13-dimethyl-2,3,4,7,8,9,10,11,12,13,14,15,16,17-tetradecahydro-1H-cyclopenta[a]phenanthren-17-yl)-5-phenylpenta-2,4-dien-1-one] | > 25 | > 25 | > 25 | > 25 | 116 to 119 | > 25 | –
C/C(=N/N=c1\[nH]c(C(=O)O)cs1)[C@@H]1CC[C@H]2[C@@H]3CC=C4CC(O)CC[C@]4(C)[C@H]3CC[C@]12C (stereo partly drawn) [Compound 18, (Z)-2-((E)-(1-((8S,9S,10R,13S,14S,17R)-3-hydroxy-10,13-dimethyl-2,3,4,7,8,9,10,11,12,13,14,15,16,17-tetradecahydro-1H-cyclopenta[a]phenanthren-17-yl)ethylidene)hydrazono)-2,3-dihydrothiazole-4-carboxylic acid] | – | – | – | – | 281 to 283 | – | –
C=CCn1c(-c2ccc(Cl)cc2)csc1=NN=C(C)[C@H]1CC[C@H]2[C@@H]3CC=C4C[C@@H](O)CC[C@]4(C)[C@H]3CC[C@]12C [Compound 20, 1-(3β-Hydroxy-pregn-5-ene-20E-ylidene)-2-(3-allyl-4-(4-chloro-pheny)thiazol-2(3H)-ylidene)azine] | – | – | – | > 25 | – | – | IC50 ([2]; Table 1S, read-out: IC50 ± %SD (µM) promastigotes L. infantum): > 25 µM; IC50 ([4]; Table 1S, read-out: IC50 ± %SD (µM) epimastigotes T. cruzi): > 25 µM
C[C@]12CC[C@H]3[C@@H](CC=C4CC(O)CC[C@@]43C)[C@@H]1CC[C@@H]2C(=O)/C=C/c1ccccc1 (stereo partly drawn) [Compound 5, (2E)-1-((10R,13S)-2,3,4,7,8,9,10,11,12,13,14,15,16,17-tetradecahydro-3(β)-hydroxy-10,13-dimethyl-1H-cyclopenta[a]phenan-thren-17(β)-yl)-3-phenylprop-2-en-1-one] | > 25 | > 25 | > 25 | > 25 | – | > 25 | –
C[C@]12CC[C@H]3[C@@H](CC=C4CC(O)CC[C@@]43C)[C@@H]1CC[C@@H]2C(=O)/C=C/C=C/c1ccco1 (stereo partly drawn) [Compound 7, (2E,4E)-5-(furan-2-yl)-1-((8S,9S,10R,13S,14S,17S)-3-hydroxy-10,13-dimethyl-2,3,4,7,8,9,10,11,12,13,14,15,16,17-tetradecahydro-1H-cyclopenta[a]phenanthren-17-yl)penta-2,4-dien-1-one] | > 25 | > 25 | > 25 | > 25 | 100 to 103 | > 25 | –
C[C@]12CC[C@H]3[C@@H](CC=C4CC(O)CC[C@@]43C)[C@@H]1CC[C@@H]2C(=O)/C=C/c1ccc(Cl)cc1 (stereo partly drawn) [Compound 3, (2E)-3-(4-Chlorophenyl)-1-((10R,13S)-2,3,4,7,8,9,10,11,12,13,14,15,16,17-tetradecahydro-3(β)-hydroxy-10,13-dimethyl-1H-cyclo-penta[a]phenanthren-17(β)-yl)prop-2-en-1-one] | > 25 | > 25 | > 25 | > 25 | 159 to 161 | > 25 | –
C=CCn1c(C(=O)O)cs/c1=N/N=C(/C)[C@@H]1CC[C@H]2[C@@H]3CC=C4CC(O)CC[C@]4(C)[C@H]3CC[C@]12C (stereo partly drawn) [Compound 19, (Z)-3-allyl-2-((E)-(1-((8S,9S,10R,13S,14S,17R)-3-hydroxy-10,13-dimethyl-2,3,4,7,8,9,10,11,12,13,14,15,16,17-tetradecahydro-1H-cyclopenta[a]phenanthren-17-yl)ethylidene)hydrazono)-2,3-dihydrothiazole-4-carboxylic acid] | – | – | – | – | 145 to 149 | – | –
C[C@]12CC[C@H]3[C@@H](CC=C4CC(O)CC[C@@]43C)[C@@H]1CC[C@@H]2C(=O)/C=C/c1cccnc1Br (some centres unmarked) [Compound 1] | > 25 | > 25 | > 25 | > 25 | 193 to 195 | > 25 | –
CC(=O)[C@H]1CC[C@H]2[C@@H]3CC=C4C[C@@H](O)CC[C@]4(C)[C@H]3CC[C@]12C [Pregnenolone, 3β-hydroxyl-5-pregnen-20-one, reference compound] | > 25 | > 25 | – | – | – | > 25 | IC50 [1, 7]: > 25 µM
